Experiments:
[1] = system: soybean; assay: Test C postemergence; type: in vivo, Glycine max
How it was run: (§1)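 Surfactant-containing, non-phytotoxic solvent formulations of each compound were applied either preemergence to seeds in a loam soil–sand blend or postemergence to plants 2 to 18 cm tall (1- to 4-leaf stage). Postemergence plants were grown in peat moss–vermiculite medium.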

[2] = system: ducksalad; assay: Test B flooded paddy test; type: in vivo, Heteranthera limosa; details: 250 g ai/ha, applied to paddy water at 2-leaf stage, visual rating after 13 to 15 d, scale 0 (no effect) to 100 (complete control)
How it was run: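 Pots were flooded to 3 cm above the soil at treatment, and compounds were applied directly into the paddy water. That depth was held throughout. After 13 to 15 d in a greenhouse, plants were rated visually against untreated controls.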

[3] = system: corn; assay: Test C postemergence; type: in vivo, Zea mays
How it was run: as §1

[4] = system: galium; assay: Test C postemergence; type: in vivo, Galium aparine
How it was run: as §1

[5] = system: barnyardgrass; assay: Test C postemergence; type: in vivo, Echinochloa crus-galli
How it was run: as §1

[6] = system: waterhemp; assay: Test C preemergence; type: in vivo, Amaranthus rudis; details: for Waterhemp plant response rating (0 to 100): Preemergence, visual rating after 13 to 15 d
From the text: Seeds of plant species selected from blackgrass (Alopecurus myosuroides), ryegrass, Italian (Italian ryegrass, Lolium multiflorum), wheat (winter wheat, Triticum aestivum), galium (catchweed bedstraw, Galium aparine), corn (Zea mays), crabgrass, large (large crabgrass, Digitaria sanguinalis), foxtail, giant, (giant foxtail, Setaria faberii), johnsongrass (Sorghum halepense), lambsquarters (Chenopodium album), morningglory (Ipomoea coccinea), nutsedge, yellow (yellow nutsedge, Cyperus esculentus), pigweed (Amaranthus retroflexus), ragweed (common ragweed, Ambrosia elatior), soybean (Glycine max), barnyardgrass (Echinochloa crus-galli), oilseed rape (Brassica napus), waterhemp (common waterhemp, Amaranthus rudis), and velvetleaf (Abutilon theophrasti) were planted into a blend of loam soil and sand and treated preemergence with test chemicals formulated in a non-phytotoxic solvent mixture which included a surfactant. At the same time, plants selected from these crop and weed species and also chickweed (common chickweed, Stellaria media), oat, wild (wild oat, Avena fatua), and kochia (Kochia scoparia), were planted in pots containing Sunshine Redi-Earth® planting medium comprising spaghnum peat moss, vermiculite, starter nutrients and dolomitic limestone and treated with postemergence applications of test chemicals formulated in the same manner. Plants ranged in height from 2 to 18 cm (1- to 4-leaf stage) for postemergence treatments. […] A dash (-) response means no test result.

[7] = system: pigweed; assay: Test A preemergence; type: in vivo, Amaranthus retroflexus; details: 0 to 100 scale (0 no effect, 100 complete control)
How it was run: (§2)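 Test chemicals in a non-phytotoxic solvent with surfactant were applied as a directed soil spray preemergence to seeds sown in loam/sand. Postemergence sprays went to plants 2–10 cm tall at the one- to two-leaf stage. A dash means no result.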

[8] = system: foxtail, giant; assay: Test A preemergence; type: in vivo, Setaria faberii; details: 0 to 100 scale (0 no effect, 100 complete control)
How it was run: as §2

[9] = system: johnsongrass; assay: Test C postemergence; type: in vivo, Sorghum halepense
How it was run: as §1

[10] = system: crabgrass, large; assay: Test C postemergence; type: in vivo, Digitaria sanguinalis
How it was run: as §1

[11] = system: foxtail, giant; assay: Test A postemergence; type: in vivo, Setaria faberii; details: 0 to 100 scale (0 no effect, 100 complete control), approx. 10 d
How it was run: as §2

[12] = system: pigweed; assay: Test A postemergence; type: in vivo, Amaranthus retroflexus; details: 0 to 100 scale (0 no effect, 100 complete control), approx. 10 d
How it was run: as §2

[13] = system: velvetleaf; assay: Test C postemergence; type: in vivo, Abutilon theophrasti
How it was run: as §1

[14] = system: ragweed; assay: Test C postemergence; type: in vivo, Ambrosia elatior
How it was run: as §1

CCOc1nc(-c2ccccc2)nn1Cc1ccnc(C(F)(F)F)c1 [Compound 27]
Plant response rating (scale of 0 to 100 where 0 is no effect and 100 is complete control) ([1]; 31 g ai/ha): 70 | Plant response rating (scale of 0 to 100 where 0 is no effect and 100 is complete control) ([1]; 62 g ai/ha): 95 | Plant response rating (scale of 0 to 100 where 0 is no effect and 100 is complete control) ([1]; 125 g ai/ha): 65 | Plant response rating (scale of 0 to 100 where 0 is no effect and 100 is complete control) ([1]; 250 g ai/ha): 70 | Plant response rating, Ducksalad, Flood [2]: 90 | Plant response rating (scale of 0 to 100 where 0 is no effect and 100 is complete control) ([3]; 31 g ai/ha): 10 | Plant response rating (scale of 0 to 100 where 0 is no effect and 100 is complete control) ([3]; 62 g ai/ha): 15 | Plant response rating (scale of 0 to 100 where 0 is no effect and 100 is complete control) ([3]; 125 g ai/ha): 10 | Plant response rating (scale of 0 to 100 where 0 is no effect and 100 is complete control) ([3]; 250 g ai/ha): 25 | Plant response rating (scale of 0 to 100 where 0 is no effect and 100 is complete control) ([4]; 31 g ai/ha): 90 | Plant response rating (scale of 0 to 100 where 0 is no effect and 100 is complete control) ([4]; 62 g ai/ha): 90 | Plant response rating (scale of 0 to 100 where 0 is no effect and 100 is complete control) ([4]; 125 g ai/ha): 85 | Plant response rating (scale of 0 to 100 where 0 is no effect and 100 is complete control) ([4]; 250 g ai/ha): 90 | Plant response rating (scale of 0 to 100 where 0 is no effect and 100 is complete control) ([5]; 31 g ai/ha): 10 | Plant response rating (scale of 0 to 100 where 0 is no effect and 100 is complete control) ([5]; 62 g ai/ha): 15 | Plant response rating (scale of 0 to 100 where 0 is no effect and 100 is complete control) ([5]; 125 g ai/ha): 25 | Plant response rating (scale of 0 to 100 where 0 is no effect and 100 is complete control) ([5]; 250 g ai/ha): 55 | Waterhemp plant response rating (0 to 100) ([6]; 31 g ai/ha): 100 | Waterhemp plant response rating (0 to 100) ([6]; 62 g ai/ha): 100 | Plant response rating (scale of 0 to 100 where 0 is no effect and 100 is complete control) ([6]; Waterhemp, preemergence, 250 g ai/ha): 100 | Plant response rating, Pigweed ([7]; 125 g ai/ha): 100 | Plant response rating, Pigweed ([7]; 500 g ai/ha, approx. 10 d): 100 | Plant response rating, Foxtail, Giant ([8]; 125 g ai/ha): 100 | Plant response rating, Foxtail, Giant ([8]; 500 g ai/ha, approx. 10 d): 100 | Plant response rating (scale of 0 to 100 where 0 is no effect and 100 is complete control) ([9]; 31 g ai/ha): 5 | Plant response rating (scale of 0 to 100 where 0 is no effect and 100 is complete control) ([9]; 62 g ai/ha): 45 | Plant response rating (scale of 0 to 100 where 0 is no effect and 100 is complete control) ([9]; 125 g ai/ha): 100 | Plant response rating (scale of 0 to 100 where 0 is no effect and 100 is complete control) ([10]; 31 g ai/ha): 10 | Plant response rating (scale of 0 to 100 where 0 is no effect and 100 is complete control) ([10]; 62 g ai/ha): 20 | Plant response rating (scale of 0 to 100 where 0 is no effect and 100 is complete control) ([10]; 125 g ai/ha): 15 | Plant response rating (scale of 0 to 100 where 0 is no effect and 100 is complete control) ([10]; 250 g ai/ha): 45 | Plant response rating, Foxtail, Giant ([11]; 125 g ai/ha): 90 | Plant response rating, Foxtail, Giant ([11]; 500 g ai/ha): 100 | Plant response rating, Pigweed ([12]; 125 g ai/ha): 100 | Plant response rating, Pigweed ([12]; 500 g ai/ha): 100 | Plant response rating (scale of 0 to 100 where 0 is no effect and 100 is complete control) ([13]; 31 g ai/ha): 45 | Plant response rating (scale of 0 to 100 where 0 is no effect and 100 is complete control) ([13]; 62 g ai/ha): 50 | Plant response rating (scale of 0 to 100 where 0 is no effect and 100 is complete control) ([13]; 125 g ai/ha): 60 | Plant response rating (scale of 0 to 100 where 0 is no effect and 100 is complete control) ([13]; 250 g ai/ha): 70 | Plant response rating (scale of 0 to 100 where 0 is no effect and 100 is complete control) ([14]; 31 g ai/ha): 55 | Plant response rating (scale of 0 to 100 where 0 is no effect and 100 is complete control) ([14]; 62 g ai/ha): 60 | Plant response rating (scale of 0 to 100 where 0 is no effect and 100 is complete control) ([14]; 125 g ai/ha): 25 | Plant response rating (scale of 0 to 100 where 0 is no effect and 100 is complete control) ([14]; 250 g ai/ha): 70
